Measured values reported in ChEMBL document CHEMBL3045487, “Bioactivity guided isolation of antiinflammatory, analgesic, and antipyretic constituents from the leaves of Pedilanthus tithymaloides (L.)” (Med Chem Res, 2013).

What was measured:
Mus musculus [1] = assay: Anti-inflammatory activity in Swiss albino Mus musculus (mouse) assessed as inhibition of carrageenan-induced paw edema at 10 mg/kg, ip administered 30 min prior to carrageenan-challenge measured after 3 to 4 hr relative to control; type: functional; conditions: route intraperitoneal
Mus musculus [2] = assay: Anti-inflammatory activity in Swiss albino Mus musculus (mouse) assessed as inhibition of cotton pellet-induced granuloma formation at 10 mg/kg, po administered QD for 5 days measured at 1 hr post-last dose relative to control; type: functional
Mus musculus [3] = assay: Toxicity in Swiss albino Mus musculus (mouse) assessed as mortality up to 100 mg/kg, po measured up to 72 hr; type: organism-based; parameters: dose 100 mg/kg, route oral; conditions: in vivo
Mus musculus [4] = assay: Toxicity in Swiss albino Mus musculus (mouse) assessed as presence of secretions up to 100 mg/kg, po measured up to 24 hr relative to control; type: organism-based; parameters: dose 100 mg/kg, route oral; conditions: in vivo
Mus musculus [5] = assay: Toxicity in Swiss albino Mus musculus (mouse) assessed as diarrhea up to 100 mg/kg, po measured up to 24 hr relative to control; type: organism-based; parameters: dose 100 mg/kg, route oral; conditions: in vivo
Mus musculus [6] = assay: Toxicity in Swiss albino Mus musculus (mouse) assessed as convulsions up to 100 mg/kg, po measured up to 24 hr relative to control; type: organism-based; parameters: dose 100 mg/kg, route oral; conditions: in vivo
Mus musculus [7] = assay: Toxicity in Swiss albino Mus musculus (mouse) assessed as tremors up to 100 mg/kg, po measured up to 24 hr relative to control; type: organism-based; parameters: dose 100 mg/kg, route oral; conditions: in vivo
Mus musculus [8] = assay: Toxicity in Swiss albino Mus musculus (mouse) assessed as ataxia up to 100 mg/kg, po measured up to 24 hr relative to control; type: organism-based; parameters: dose 100 mg/kg, route oral; conditions: in vivo
Mus musculus [9] = assay: Toxicity in Swiss albino Mus musculus (mouse) assessed as lethargy up to 100 mg/kg, po measured up to 24 hr relative to control; type: organism-based; parameters: dose 100 mg/kg, route oral; conditions: in vivo
Mus musculus [10] = assay: Toxicity in Swiss albino Mus musculus (mouse) assessed as effect on mobility up to 100 mg/kg, po measured up to 24 hr relative to control; type: organism-based; parameters: dose 100 mg/kg, route oral; conditions: in vivo
Mus musculus [11] = assay: Toxicity in Swiss albino Mus musculus (mouse) assessed as abdominal constriction up to 100 mg/kg, po measured up to 24 hr relative to control; type: organism-based, Abdomen; parameters: dose 100 mg/kg, route oral; conditions: in vivo
Mus musculus [12] = assay: Toxicity in Swiss albino Mus musculus (mouse) assessed as weight loss up to 100 mg/kg, po measured up to 24 hr relative to control; type: organism-based; parameters: dose 100 mg/kg, route oral; conditions: in vivo
Rattus norvegicus [13] = assay: Antipyretic activity in Wistar albino Rattus norvegicus (rat) assessed as brewer's yeast-induced rectal tempeRattus norvegicus (rat)ure at 150 mg/kg, po measured at 23 hr (reference value: 39.1+/- 0.18 degC); type: functional
Rattus norvegicus [14] = assay: Antipyretic activity in Wistar albino Rattus norvegicus (rat) assessed as brewer's yeast-induced rectal tempeRattus norvegicus (rat)ure at 150 mg/kg, po measured at 22 hr (reference value: 39.1+/- 0.18 degC); type: functional
Rattus norvegicus [15] = assay: Antipyretic activity in Wistar albino Rattus norvegicus (rat) assessed as brewer's yeast-induced rectal tempeRattus norvegicus (rat)ure at 150 mg/kg, po measured at 21 hr (reference value: 39.1+/- 0.18 degC); type: functional
Rattus norvegicus [16] = assay: Antipyretic activity in Wistar albino Rattus norvegicus (rat) assessed as brewer's yeast-induced rectal tempeRattus norvegicus (rat)ure at 150 mg/kg, po measured at 20 hr (reference value: 39.1+/- 0.18 degC); type: functional
Rattus norvegicus [17] = assay: Antipyretic activity in Wistar albino Rattus norvegicus (rat) assessed as brewer's yeast-induced rectal tempeRattus norvegicus (rat)ure at 150 mg/kg, po measured at 19 hr (reference value: 39.3 +/- 0.11 degC); type: functional
Rattus norvegicus [18] = assay: Antipyretic activity in Wistar albino Rattus norvegicus (rat) assessed as brewer's yeast-induced rectal temperature at 10 mg/kg, po measured at 22 hr (reference value: 39.1+/- 0.18 degC); type: functional
Rattus norvegicus [19] = assay: Antipyretic activity in Wistar albino Rattus norvegicus (rat) assessed as brewer's yeast-induced rectal tempeRattus norvegicus (rat)ure at 10 mg/kg, po measured at 21 hr (reference value: 39.1+/- 0.18 degC); type: functional
Rattus norvegicus [20] = assay: Antipyretic activity in Wistar albino Rattus norvegicus (rat) assessed as brewer's yeast-induced rectal tempeRattus norvegicus (rat)ure at 10 mg/kg, po measured at 20 hr (reference value: 39.1+/- 0.18 degC); type: functional
Rattus norvegicus [21] = assay: Antipyretic activity in Wistar albino Rattus norvegicus (rat) assessed as brewer's yeast-induced rectal tempeRattus norvegicus (rat)ure at 10 mg/kg, po measured at 19 hr (reference value: 39.3 +/- 0.11 degC); type: functional
Rattus norvegicus [22] = assay: Antipyretic activity in Wistar albino Rattus norvegicus (rat) assessed as brewer's yeast-induced rectal tempeRattus norvegicus (rat)ure at 10 mg/kg, po measured at 23 hr (reference value: 39.1+/- 0.18 degC); type: functional
Mus musculus [23] = assay: Antinociceptive activity Swiss albino Mus musculus (mouse) assessed as inhibition of formalin-induced paw licking at 10 mg/kg, po administered 30 min prior to formalin-challenge measured from 15 to 30 min relative to control; type: functional
Mus musculus [24] = assay: Antinociceptive activity Swiss albino Mus musculus (mouse) assessed as inhibition of formalin-induced paw licking at 10 mg/kg, po administered 30 min prior to formalin-challenge measured up to 5 min relative to control; type: functional
Mus musculus [25] = assay: Antinociceptive activity in Swiss albino Mus musculus (mouse) assessed as inhibition of acetic acid-induced writhing at 10 mg/kg, po administered 1 hr prior to acetic acid-challenge measured up to 20 min relative to control; type: functional
Mus musculus [26] = assay: Antinociceptive activity Swiss albino Mus musculus (mouse) assessed as inhibition of formalin-induced paw licking at 10 mg/kg, po administered 60 min prior to formalin-challenge measured from 15 to 30 min relative to control; type: functional
Mus musculus [27] = assay: Antinociceptive activity Swiss albino Mus musculus (mouse) assessed as inhibition of formalin-induced paw licking at 10 mg/kg, po administered 60 min prior to formalin-challenge measured up to 5 min relative to control; type: functional
Mus musculus [28] = assay: Anti-inflammatory activity in Swiss albino Mus musculus (mouse) assessed as inhibition of carrageenan-induced paw edema at 10 mg/kg, ip administered 30 min prior to carrageenan-challenge measured after 5 hr relative to control; type: functional; conditions: route intraperitoneal
Mus musculus [29] = organism: Mus musculus; assay: animal or person; conditions: Swiss albino, po, read-out: INH
Description: Antinociceptive activity Swiss albino Mus musculus (mouse) assessed as inhibition of formalin-induced paw licking at 5 mg/kg, po administered 30 min prior to formalin-challenge measured from 15 to 30 min relative to control

Mus musculus [30] = organism: Mus musculus; assay: animal or person; conditions: Swiss albino, po, read-out: INH; remark: listed apart in the source
Description: Antinociceptive activity Swiss albino Mus musculus (mouse) assessed as inhibition of formalin-induced paw licking at 5 mg/kg, po administered 30 min prior to formalin-challenge measured up to 5 min relative to control

Structure (SMILES)	inhibition in vivo at 10 mg/kg (Mus musculus [1]) [%]	inhibition in vivo at 10 mg/kg (Mus musculus [2]) [%]	Activity (Mus musculus [3])	Activity (Mus musculus [4])	Activity (Mus musculus [5])	Activity (Mus musculus [6])	Activity (Mus musculus [7])	Activity (Mus musculus [8])	Activity (Mus musculus [9])	Activity (Mus musculus [10])	Activity (Mus musculus [11])	Activity (Mus musculus [12])	inhibition in vivo at 10 mg/kg (Mus musculus [25]) [%]	inhibition in vivo at 10 mg/kg (Mus musculus [26]) [%]	inhibition in vivo at 10 mg/kg (Mus musculus [27]) [%]	other results
CCCCCCCCCCCCC(O)COS(=O)(=O)[O-].[Na+] (stereo unspecified)	33.3	12.9	Non-toxic	Non-toxic	Non-toxic	Non-toxic	Non-toxic	Non-toxic	Non-toxic	Non-toxic	Non-toxic	Non-toxic				
CC(=O)Nc1ccc(O)cc1 [ACETAMINOPHEN]																T (Rattus norvegicus [13]): 37.7 °C; T (Rattus norvegicus [14]): 37.9 °C; T (Rattus norvegicus [15]): 38 °C; T (Rattus norvegicus [16]): 38 °C; T (Rattus norvegicus [17]): 39.6 °C
CC[C@H](CC[C@@H](C)[C@H]1CC[C@H]2[C@@H]3CC=C4C[C@@H](O)CC[C@]4(C)[C@H]3CC[C@]12C)C(C)C [BETA-SITOSTEROL]		30.4	Non-toxic	Non-toxic	Non-toxic	Non-toxic	Non-toxic	Non-toxic	Non-toxic	Non-toxic	Non-toxic	Non-toxic				T (Rattus norvegicus [18]): 38 °C; T (Rattus norvegicus [19]): 38.1 °C; T (Rattus norvegicus [20]): 38.1 °C; T (Rattus norvegicus [21]): 39.6 °C; T (Rattus norvegicus [22]): 37.9 °C
O=C(O)Cc1ccccc1Nc1c(Cl)cccc1Cl [DICLOFENAC SODIUM]													90.9			inhibition in vivo at 10 mg/kg (Mus musculus [23]): 97.6%; inhibition in vivo at 10 mg/kg (Mus musculus [24]): 20.1%
CC(=O)O[C@H]1CC[C@@H]2[C@](C)(CC[C@H]3[C@@]2(C)CC[C@@]2(C)[C@H]4CC(C)(C)CC[C@]4(C)CC[C@]32C)[C@H]1C [EPIFRIEDELANYL ACETATE]	30.6	24.9	Non-toxic	Non-toxic	Non-toxic	Non-toxic	Non-toxic	Non-toxic	Non-toxic	Non-toxic	Non-toxic	Non-toxic				
C[C@H]1[C@H](O)CC[C@@H]2[C@]1(C)CC[C@H]1[C@@]2(C)CC[C@@]2(C)[C@H]3CC(C)(C)CC[C@]3(C)CC[C@]12C [FRIEDELANOL]	36.1	29.2	Non-toxic	Non-toxic	Non-toxic	Non-toxic	Non-toxic	Non-toxic	Non-toxic	Non-toxic	Non-toxic	Non-toxic	45.8	42.9	35.7	
COc1ccc2c(c1)c(CC(=O)O)c(C)n2C(=O)c1ccc(Cl)cc1 [INDOMETHACIN]		45.5														inhibition in vivo at 10 mg/kg (Mus musculus [28]): 61.1%
O=c1cc(-c2ccc(O)c(O)c2)oc2cc(O)cc(O)c12 [LUTEOLIN]		37	Non-toxic	Non-toxic	Non-toxic	Non-toxic	Non-toxic	Non-toxic	Non-toxic	Non-toxic	Non-toxic	Non-toxic	55.4	48.6	40.3	inhibition in vivo at 10 mg/kg (Mus musculus [28]): 50%
CN1CC[C@]23c4c5ccc(O)c4O[C@H]2[C@@H](O)C=C[C@H]3[C@H]1C5 [MORPHINE]																inhibition in vivo at 5 mg/kg (Mus musculus [29]): 100%; inhibition in vivo at 5 mg/kg (Mus musculus [30]): 68%
C[C@H]1[C@H](C)CC[C@]2(C(=O)O)CC[C@]3(C)C(=CC[C@@H]4[C@@]5(C)CC[C@H](O)C(C)(C)[C@@H]5CC[C@]43C)[C@H]12 [URSOLIC ACID]		38.5	Non-toxic	Non-toxic	Non-toxic	Non-toxic	Non-toxic	Non-toxic	Non-toxic	Non-toxic	Non-toxic	Non-toxic	50.3	61.4	43.6	
